In ChEMBL document CHEMBL1145770, “Efficient synthesis of 3-trifluoromethylphenyldiazirinyl oleic acid derivatives and their biological activity for protein kinase C” (Bioorg Med Chem Lett, 2003) one finds Activity data, which are given here for 1 compound.

For this assay, the target named is Protein kinase C alpha type (Homo sapiens) (UniProt P17252). The assay is described as follows: Effect on diacylglycerol induced (DAG) PKC activation at 1-10 uM. In kind it is functional.

SMILES strings stand for the structures.

On to `O=C(O)CCCCCCC/C=C/CCCCCCCCOc1cc(C2(C(F)(F)F)N=N2)ccc1I`, for which the Activity came out at 40%.
